The source made the active and inactive calls. No cut-off for these calls is given here.
Experiments:
cells = type: cell-based, Ebolavirus; conditions: Orthoebolavirus, HeLa, 4.5 h
in vitro [1] = conditions: human, hela
in vitro [2] = conditions: human, hela; remark: listed apart in the source
Ebolavirus = assay: Antiviral activity against Ebolavirus Mayinga infected in African green monkey Vero E6 cells after 72 hrs by eGFP assay; type: functional; conditions: Orthoebolavirus, Vero C1008, 72 h
[3] = biological target: Cathepsin B (Homo sapiens) (UniProt P07858); assay: Inhibition of recombinant cathepsin B (unknown origin) at 10 uM using Ac-RR-AFC as substrate preincubated for 29 mins followed by substrate addition by fluorescence-based assay
[4] = biological target: Procathepsin L (Homo sapiens) (UniProt P07711); conditions: at 10 µM
Chain of Procathepsin L (Homo sapiens) (P07711 114-333 limits assumed): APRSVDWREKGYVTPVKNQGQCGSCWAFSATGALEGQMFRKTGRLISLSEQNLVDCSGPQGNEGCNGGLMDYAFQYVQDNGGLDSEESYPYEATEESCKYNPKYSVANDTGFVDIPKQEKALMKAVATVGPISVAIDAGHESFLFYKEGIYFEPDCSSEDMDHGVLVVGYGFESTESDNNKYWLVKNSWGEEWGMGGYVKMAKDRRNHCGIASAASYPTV

Structure (SMILES)	IC50 (cells)	selectivity ratio (in vitro [1])	selectivity ratio (in vitro [2])	further results
CCC(=C(c1ccc(O)cc1)c1ccc(OCCN(C)C)cc1)c1ccccc1	1.96 µM	123	123	–
Nc1ncnc2c1c(-c1cccc(OCc3ccccc3)c1)cn2[C@H]1C[C@H](CN2CCCC2)C1	3.05 µM	13	13	IC50 (Ebolavirus): 1 to 10 µM
Cc1[nH]c2c(CN3CC(CO)C(CN4CCCC4)C3)cccc2c1C (stereo unspecified)	6.09 µM	82	82	IC50 (Ebolavirus): 1 to 10 µM
Cc1ccc(CN2CCCN(C)C3(CCN(C)CC3)C2)cc1C	6.83 µM	73	73	IC50 (Ebolavirus): 1 to 10 µM
CNC1CCC(N(Cc2cccc(-c3ccncc3)c2)C(=O)c2sc3c(F)ccc(F)c3c2Cl)CC1 (stereo unspecified)	7.67 µM	65	65	–
CN(C)c1ccccc1CN1CCCN(Cc2ccccc2N(C)C)C1c1ccncc1	6.83 µM	73	73	inhibition [3]: Active; inhibition [4]: Active
COc1cc2nc(N3CCCN(C)CC3)nc(NC3CCN(Cc4ccccc4)CC3)c2cc1OC	0.966 µM	45	45	IC50 (Ebolavirus): 1 to 10 µM
CC(C)(C)c1ccc(C(=O)CCCN2CCC(OC(c3ccccc3)c3ccccc3)CC2)cc1	–	–	–	inhibition [4]: Active
CCN(CC)CCCN(c1ccccc1)C1Cc2ccccc2C1 [APRINDINE]	7.69 µM	–	–	–
COc1cc(Nc2c(C#N)cnc3cc(OCCCN4CCN(C)CC4)c(OC)cc23)c(Cl)cc1Cl [BOSUTINIB]	3.85 µM	–	–	–
COc1cc2c(Oc3ccc4[nH]c(C)cc4c3F)ncnc2cc1OCCCN1CCCC1 [CEDIRANIB]	7.67 µM	65	65	–
COc1ccc2cc1Oc1ccc(cc1)C[C@H]1c3c(cc4c(c3Oc3cc5c(cc3OC)CCN(C)[C@@H]5C2)OCO4)CCN1C [CEPHARANTHINE]	1.53 µM	–	–	–
CN1[C@@H]2CC[C@H]1C[C@@H](OC1c3ccccc3CCc3ccccc31)C2 [DEPTROPINE]	6.58 µM	76	76	inhibition [4]: Active
CCCCc1oc2ccc(NS(C)(=O)=O)cc2c1C(=O)c1ccc(OCCCN(CCCC)CCCC)cc1 [DRONEDARONE]	2.2 µM	–	–	–
CC/C(=C(\c1ccc(O)cc1)c1ccc(OCCNC)cc1)c1ccccc1 [ENDOXIFEN]	3.05 µM	164	164	–
COc1ccc2cc1Oc1ccc(cc1)C[C@H]1c3cc(c(OC)cc3CCN1C)Oc1c(OC)c(OC)cc3c1[C@H](C2)N(C)CC3 [FANCHININ]	2.16 µM	22	22	–
COCC(=O)O[C@]1(CCN(C)CCCc2nc3ccccc3[nH]2)CCc2cc(F)ccc2[C@@H]1C(C)C [MIBEFRADIL]	4.32 µM	–	–	–
CC(=O)N(C)C1(c2ccccc2)CCN(CCC[C@]2(c3ccc(Cl)c(Cl)c3)CCCN(C(=O)c3ccccc3)C2)CC1 [OSANETANT]	9.65 µM	52	52	–
CN1CCN(CCCN2c3ccccc3Sc3ccc(S(=O)(=O)N(C)C)cc32)CC1 [THIOPROPERAZINE]	4.32 µM	–	–	–
CC[C@]1(O)C[C@@H]2CN(CCc3c([nH]c4ccccc34)[C@@](C(=O)OC)(c3cc4c(cc3OC)N(C)[C@H]3[C@@](O)(C(=O)OC)[C@H](OC(C)=O)[C@]5(CC)C=CCN6CC[C@]43[C@@H]65)C2)C1 [VINBLASTINE]	–	–	–	EC50 (cells): 0.048 µM
CC[C@]1(O)C[C@H]2CN(CCc3c([nH]c4ccccc34)[C@@](C(=O)OC)(c3cc4c(cc3OC)N(C=O)[C@H]3[C@@](O)(C(=O)OC)[C@H](OC(C)=O)[C@]5(CC)C=CCN6CC[C@]43[C@@H]65)C2)C1 [VINCRISTINE]	0.141 µM	–	–	–
CC[C@]1(O)C[C@@H]2CN(CCc3c([nH]c4ccccc34)[C@@](C(=O)OC)(c3cc4c(cc3OC)N(C)[C@H]3[C@@](O)(C(N)=O)[C@H](O)[C@]5(CC)C=CCN6CC[C@]43[C@@H]65)C2)C1 [VINDESINE]	0.272 µM	1840	1840	–
CCC1=C[C@@H]2CN(C1)Cc1c([nH]c3ccccc13)[C@@](C(=O)OC)(c1cc3c(cc1OC)N(C)[C@H]1[C@@](O)(C(=O)OC)[C@H](OC(C)=O)[C@]4(CC)C=CCN5CC[C@]31[C@@H]54)C2 [VINORELBINE]	0.066 µM	–	–	–
